Experimental data reported in ChEMBL document CHEMBL3758170, “From indole to pyrrole, furan, thiophene and pyridine: Search for novel small molecule inhibitors of bacterial transcription initiation complex formation” (Bioorg Med Chem, 2016).
The source made the active and inactive calls. The calls are words filed in the database; no cut-off is given here.

How the values were obtained:
Bacillus subtilis [1] = assay: Antibacterial activity against Bacillus subtilis 168 assessed as growth inhibition at 200 uM measured every 10 mins for 16 hrs by FLUOstar Optima plate reader analysis relative to control; assay type: functional; conditions: for inhibition of growth at 200 µM: read-out: GI
Escherichia coli [2] = assay: Antibacterial activity against Escherichia coli DH5[alpha] assessed as growth inhibition at 200 uM measured every 10 mins for 16 hrs by FLUOstar Optima plate reader analysis relative to control; assay type: functional; conditions: for inhibition of growth at 200 µM: read-out: GI
BL21-DE3 = assay: Inhibition of Bacillus subtilis C-terminal GST-tagged RNAP beta'-CH expressed in Escherichia coli BL21 (DE3) cells binding interaction with Escherichia coli sigma-70/Bacillus subtilis full length SigmaA2.2 expressed in Escherichia coli C41 (DE3) cells using TMB as substrate at 15 uM preincubated for 1 hr followed by substrate addition by ELISA relative to control
[3] = Solubility of compound in Luria-Bertani medium at 200 uM; assay type: physicochemical
Escherichia coli [4] = assay: Antibacterial activity against Escherichia coli DH5[alpha] assessed as inhibition of exponential phase of bacterial growth at 200 uM measured every 10 mins for 16 hrs by FLUOstar Optima plate reader analysis relative to control; assay type: functional; conditions: read-out: GI
Bacillus subtilis [5] = assay: Antibacterial activity against Bacillus subtilis 168 assessed as inhibition of exponential phase of bacterial growth at 200 uM measured every 10 mins for 16 hrs by FLUOstar Optima plate reader analysis relative to control; assay type: functional; conditions: read-out: GI

Row | Structure (SMILES) | solubility [3] | growth inhibition (GI) (Bacillus subtilis [1]) | inhibition of growth at 200 µM (Escherichia coli [2]) | inhibition (BL21-DE3) | inhibition of growth at 200 µM (Escherichia coli [4]) | inhibition of growth at 200 µM (Bacillus subtilis [1]) | inhibition of growth at 200 µM (Bacillus subtilis [5]) | growth inhibition (GI) (Escherichia coli [2])
1 | O=C(N/N=C/c1cccs1)c1cccs1 | – | inactive | – | 27% | 56% | – | – | –
2 | COc1cnc(Cl)cc1C(=O)NNC(=O)c1c(OC)cc(OC)c2c(-c3ccc(Br)cc3)c[nH]c12 | soluble | – | 24% | 17% | – | 13% | – | –
3 | O=C(N/N=C/c1cccs1)c1ccnc(Br)c1 | soluble | – | 59% | 6% | – | 35% | – | –
4 | O=C(N/N=C/c1cccs1)c1ccc[nH]1 | soluble | inactive | – | 20% | 26% | – | – | –
5 | COc1cc(OC)c2c(-c3ccc(Br)cc3)c[nH]c2c1C(=O)N/N=C/c1ccc[nH]1 | soluble | inactive | – | 46% | – | – | – | inactive
6 | O=C(N/N=C/c1ccc[nH]1)c1ccnc(Cl)c1 | soluble | – | 22% | 31% | – | 6% | – | –
7 | O=C(N/N=C/c1ccc[nH]1)c1cccs1 | soluble | – | 22% | 34% | – | 33% | – | –
8 | COc1cc(OC)c2c(C)c(C(=O)NNC(=O)c3c(OC)cc(OC)c4c(-c5ccc(Cl)cc5)c[nH]c34)[nH]c2c1 | – | – | 45% | 72% | – | – | – | –
9 | COc1cc(OC)c2c(-c3ccc(Br)cc3)c[nH]c2c1C(=O)N/N=C/c1ccco1 | soluble | inactive | 16% | 33% | – | – | – | –
10 | O=C(N/N=C/c1ccc[nH]1)c1ccco1 | soluble | inactive | – | 21% | – | – | – | inactive
11 | COc1cnc(Cl)cc1C(=O)NNC(=O)c1c(OC)cc(OC)c2c(-c3ccc(Cl)cc3)c[nH]c12 | soluble | – | 26% | 28% | – | – | 37% | –
12 | O=C(N/N=C/c1cc(Br)cs1)c1ccc[nH]1 | soluble | – | – | 27% | 51% | – | 73% | –
13 | O=C(N/N=C/c1cc(Br)cs1)c1ccco1 | soluble | inactive | 7% | inactive | – | – | – | –
14 | O=C(N/N=C/c1cccs1)c1ccco1 | – | inactive | 23% | 29% | – | – | – | –
15 | COc1cc(OC)c2c(-c3ccc(Cl)cc3)c[nH]c2c1C(=O)NNC(=O)c1cccs1 | soluble | inactive | – | inactive | – | – | – | inactive
16 | O=C(N/N=C/c1ccco1)c1cccs1 | soluble | – | – | 18% | 50% | 4% | – | –
17 | O=C(N/N=C/c1ccco1)c1ccco1 | soluble | inactive | 18% | 3% | – | – | – | –
18 | COc1cc(OC)c2c(-c3ccc(Cl)cc3)c[nH]c2c1C(=O)NNC(=O)c1c(OC)cc(OC)c2c(-c3ccc(Cl)cc3)c[nH]c12 | – | – | – | 63% | – | 30% | – | –
19 | O=C(N/N=C/c1ccco1)c1ccc[nH]1 | soluble | inactive | 3% | 8% | – | – | – | –
20 | CO[C@H]1/C=C/O[C@@]2(C)Oc3c(C)c(O)c4c(O)c(c(/C=N/N5CCN(C)CC5)c(O)c4c3C2=O)NC(=O)/C(C)=C\C=C\[C@H](C)[C@H](O)[C@@H](C)[C@@H](O)[C@@H](C)[C@H](OC(C)=O)[C@@H]1C [RIFAMPIN] | – | – | 98% | – | – | 100% | – | –
21 | O=C(N/N=C/c1ccco1)c1ccnc(Cl)c1 | soluble | inactive | 3% | 32% | – | – | – | –

Continued, in another order:

Row | solubility [3] | Structure (SMILES) | growth inhibition (GI) (Bacillus subtilis [1]) | inhibition of growth at 200 µM (Escherichia coli [2]) | inhibition (BL21-DE3) | inhibition of growth at 200 µM (Escherichia coli [4]) | inhibition of growth at 200 µM (Bacillus subtilis [1]) | inhibition of growth at 200 µM (Bacillus subtilis [5]) | growth inhibition (GI) (Escherichia coli [2])
22 | soluble | O=C(N/N=C/c1ccc[nH]1)c1ccnc(Br)c1 | inactive | 53% | 8% | – | – | – | –
23 | soluble | COc1cc(OC)c2c(-c3ccc(Cl)cc3)c[nH]c2c1C(=O)NNC(=O)c1ccnc(Cl)c1 | – | 10% | 14% | – | 17% | – | –
24 | soluble | O=C(N/N=C/c1cc(Br)cs1)c1cccs1 | inactive | 23% | 36% | – | – | – | –
25 | soluble | COc1cc(OC)c2c(-c3ccc(Br)cc3)c[nH]c2c1C(=O)NNC(=O)c1ccnc(Cl)c1 | inactive | 15% | 17% | – | – | – | –
26 | soluble | COc1cc(OC)c2c(-c3ccc(Br)cc3)c[nH]c2c1C(=O)NNC(=O)c1ccncc1Br | – | 14% | 3% | – | – | 52% | –
27 | soluble | COc1cc(OC)c2c(-c3ccc(Cl)cc3)c[nH]c2c1C(=O)NNC(=O)c1ccncc1Br | – | – | 11% | 47% | – | 74% | –
28 | soluble | COc1cc(OC)c2c(-c3ccc(Br)cc3)c[nH]c2c1C(=O)NNC(=O)c1ccc[nH]1 | inactive | – | inactive | – | – | – | inactive
29 | soluble | O=C(N/N=C/c1cccs1)c1ccncc1Br | – | 18% | 8% | – | 11% | – | –
30 | soluble | COc1cc(OC)c2c(-c3ccc(Cl)cc3)c[nH]c2c1C(=O)N/N=C/c1ccco1 | – | – | 34% | 37% | 7% | – | –
31 | soluble | COc1cc(OC)c2c(-c3ccc(Cl)cc3)c[nH]c2c1C(=O)NNC(=O)c1ccnc(Br)c1 | – | – | 24% | – | – | 25% | inactive
32 | soluble | COc1cc(OC)c2c(-c3ccc(Br)cc3)c[nH]c2c1C(=O)NNC(=O)c1ccnc(Br)c1 | – | – | 20% | – | – | 29% | inactive
33 | soluble | COc1cc(OC)c2c(-c3ccc(Cl)cc3)c[nH]c2c1C(=O)N/N=C/c1cccs1 | inactive | – | 38% | – | – | – | inactive
34 | soluble | COc1cc(OC)c2c(-c3ccc(Cl)cc3)c[nH]c2c1C(=O)NNC(=O)c1ccc[nH]1 | inactive | – | inactive | – | – | – | inactive
35 | soluble | O=C(N/N=C/c1ccc[nH]1)c1ccc[nH]1 | – | 21% | 41% | – | 30% | – | –
36 | soluble | COc1cc(OC)c2c(-c3ccc(Br)cc3)c[nH]c2c1C(=O)N/N=C/c1cccs1 | inactive | 29% | inactive | – | – | – | –
37 | soluble | O=C(N/N=C/c1cccs1)c1ccnc(Cl)c1 | – | 30% | 30% | – | – | 29% | –
38 | soluble | O=C(N/N=C/c1ccc[nH]1)c1ccncc1Br | inactive | 7% | 9% | – | – | – | –
39 | soluble | COc1cc(OC)c2c(-c3ccc(Br)cc3)c[nH]c2c1C(=O)NNC(=O)c1cccs1 | inactive | – | inactive | – | – | – | inactive
